Laboratory results: ChEMBL document CHEMBL4406800, “Discovery of Potent Protease-Activated Receptor 4 Antagonists with in Vivo Antithrombotic Efficacy” (J Med Chem, 2019)

What was measured:
[1] = Stability in human liver microsomes assessed as parent compound remaining measured after 10 mins; type: ADME, Microsome; details: liver microsomes, read-out: Stability
[2] = target: T1, Proteinase-activated receptor 4 (Homo sapiens, UniProt Q96RI0); assay: Antagonist activity at full-length human PAR4 expressed in HEK293 cells assessed as inhibition of AYPGKF-induced intracellular calcium mobilization preincubated for 30 mins followed by AYPGKF addition and measured by calcium indicator-based FLIPR assay; type: functional, cell-based
T1 sequence (Q96RI0 whole entry): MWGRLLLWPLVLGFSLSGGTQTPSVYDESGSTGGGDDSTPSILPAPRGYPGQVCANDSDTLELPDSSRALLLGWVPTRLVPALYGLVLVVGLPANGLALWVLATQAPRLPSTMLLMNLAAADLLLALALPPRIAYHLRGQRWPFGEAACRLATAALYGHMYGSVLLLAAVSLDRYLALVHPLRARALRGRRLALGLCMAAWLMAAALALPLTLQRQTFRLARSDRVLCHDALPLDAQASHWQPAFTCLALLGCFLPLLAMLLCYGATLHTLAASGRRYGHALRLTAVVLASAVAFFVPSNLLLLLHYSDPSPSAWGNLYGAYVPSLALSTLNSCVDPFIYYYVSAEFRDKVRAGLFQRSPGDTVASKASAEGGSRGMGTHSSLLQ

[3] = Stability in rat liver microsomes assessed as parent compound remaining measured after 10 mins; type: ADME, Microsome; details: read-out: Stability

SMILES | remaining at 10 min [1] [%] | IC50 [2] [nM] | remaining at 10 min [3] [%]
COc1cc(OCc2cccc(CO)c2)c2cc(-c3cn4nc(OC)sc4n3)oc2c1 | – | 27 | –
c1ccc(Sc2nn3cc(-c4cc5ccccc5o4)nc3s2)cc1 | – | 1900 | –
COc1cc(OCc2ccccc2OCc2ccccc2)c2cc(-c3cn4nc(OC)sc4n3)oc2c1 | 94 | 3.2 | 22
COc1nn2cc(-c3cc4cccc(OC)c4o3)nc2s1 | 25 | 2.8 | 11
CCc1nn2cc(-c3cc4ccccc4o3)nc2s1 | 30 | 38 | 3
COc1nn2cc(-c3cc4c(OCc5ccccc5)cccc4o3)nc2s1 | 85 | 24 | 75
CCOc1nn2cc(-c3cc4ccccc4o3)nc2s1 | 57 | 67 | 37
COc1cc(OCc2ccccc2C(F)(F)F)c2cc(-c3cn4nc(OC)sc4n3)oc2c1 | – | 3.4 | –
COc1cc(OCc2cccc(CCc3ccccc3)c2)c2cc(-c3cn4nc(OC)sc4n3)oc2c1 | 99 | 2.4 | 68
CS(=O)(=O)c1nn2cc(-c3cc4ccccc4o3)nc2s1 | – | 820 | –
COc1ccc(COc2cc(OC)cc3oc(-c4cn5nc(OC)sc5n4)cc23)cc1 | 73 | 1.6 | 64
COc1cc(OCc2cccc(C(F)(F)F)c2)c2cc(-c3cn4nc(OC)sc4n3)oc2c1 | 93 | 3.1 | 79
COc1cc(OCc2cccc(COc3ccccc3)c2)c2cc(-c3cn4nc(OC)sc4n3)oc2c1 | 86 | 3.2 | 64
COc1cc(OCc2ccc(C(F)(F)F)cc2)c2cc(-c3cn4nc(OC)sc4n3)oc2c1 | 79 | 4.3 | 90
COc1cc(OCc2cccc(Oc3ccccc3)c2)c2cc(-c3cn4nc(OC)sc4n3)oc2c1 | 86 | 1.2 | 42

Other lines, results leading:

remaining at 10 min [1] [%] | IC50 [2] [nM] | remaining at 10 min [3] [%] | SMILES
88 | 1.3 | 84 | COc1cc(OCc2ccc(OCc3ccccc3)cc2)c2cc(-c3cn4nc(OC)sc4n3)oc2c1
20 | – | 3 | COc1nn2cc(-c3cc4ccc(OC)c(OC)c4o3)nc2s1
80 | 0.89 | 45 | COc1cc(OCc2cccc(Sc3ccccc3)c2)c2cc(-c3cn4nc(OC)sc4n3)oc2c1
82 | 3.3 | 79 | COc1cc(OCc2cccc(Cl)c2)c2cc(-c3cn4nc(OC)sc4n3)oc2c1
30 | – | 38 | COc1ccc2oc(-c3cn4nc(OC)sc4n3)cc2c1
– | 760 | – | CC(C)Oc1nn2cc(-c3cc4ccccc4o3)nc2s1
62 | 530 | 53 | c1ccc2oc(-c3cn4nc(C5CC5)sc4n3)cc2c1
75 | 1.8 | 25 | COc1cc(OCCOCc2ccccc2)c2cc(-c3cn4nc(OC)sc4n3)oc2c1
100 | 0.98 | – | COc1cc(OCc2cccc(C#N)c2)c2cc(-c3cn4nc(OC)sc4n3)oc2c1
55 | – | 28 | COc1nn2cc(-c3cc4c(OC)ccc(OC)c4o3)nc2s1
95 | 2.3 | 78 | COc1cc(OCc2ccccc2Cl)c2cc(-c3cn4nc(OC)sc4n3)oc2c1
94 | – | 68 | COc1nn2cc(-c3cc4ccc(OCc5ccccc5)cc4o3)nc2s1
40 | 7.6 | 42 | COc1nn2cc(-c3cc4c(OC)cccc4o3)nc2s1
57 | – | 55 | COc1ccc2cc(-c3cn4nc(OC)sc4n3)oc2c1
– | 11 | – | COc1cc(OCc2ccc(Cl)cc2)c2cc(-c3cn4nc(OC)sc4n3)oc2c1
